“Also recorded” adds a separate entry of the source. One block for each compound: values may come before it.
What was measured:
[1] = test system: murine oligodendrocyte precursor cells; experiment: Differentiation of murine oligodendrocyte precursor cells (immunocytochemistry, qPCR); type: cell-based, murine (neonatal mice); conditions: for OPC differentiation after PDGF-a withdrawal: PDGF-a withdrawal plus ILA or T3; for OPC differentiation (CC1 expression): compared to control conditions or OPCs treated with PDGF-a
Text: We tested the effect of several doses of indole lactate on differentiation of oligodendrocyte precursor cells isolated using immune-panning from neonatal mice.

[2] = test system: experimental autoimmune encephalomyelitis; experiment: Experimental autoimmune encephalomyelitis, indole lactate IP; type: in vivo, Mice (C57/BL6); conditions: for Disease severity (EAE): p<0.0001
Text: (§1) Mice (C57/BL6, 8-9 week old) were immunized with MOG35-55 peptide and CFA and received IP injection of PTX on day 0 and 2. […] Mice were weighed and scored daily using the following scale (0-normal, 1-limp tail, 2-hind-limb weakness, 3-hind-limb paralysis, 4-fore-limb weakness, 5-death).

[3] = test system: experimental autoimmune encephalomyelitis; experiment: Experimental autoimmune encephalomyelitis, oral indole lactate; type: in vivo, Mice (C57/BL6); conditions: for severity of EAE: oral, ILA 2 mM in drinking water from day 7 post-immunization, 3 weeks, p<0.0001 vs vehicle
Experimental: as §1
We subsequently performed additional experiments in which we induced EAE using the same paradigm, however at day 7 post-immunization mice were randomized to receive ILA orally in drinking water (ILA 2 mM) or acidified water (adjusted to a similar pH) for the next 3 weeks. At four weeks post-immunization mice were euthanized and tissues were collected and processed for immunohistochemistry. We stained sections of the spinal cord to assess for extent of demyelination and for infiltration of immune cells.
Additionally, we repeated experiments and euthanized mice at the peak of disease to obtain spinal cord tissues for flow cytometric analyses.

[4] = test system: Murine MOG specific T cells; experiment: T cell proliferation, activation and Th17 polarization by flow cytometry; type: cell-based, murine (2D2 TCR transgenic C57/BL6 mice)
Experimental: Murine MOG specific T cells were isolated and stimulated with […] Th17 polarizing conditions for 72 hours followed by flow-cytometry to analyze viability, proliferation and Th17 polarization in presence of vehicle or varying doses of ILA;
T cells were isolated from spleen and lymph nodes of 2D2 TCR transgenic C57/BL6 mice using negative selection (STEMCELL CD4 T cell isolation kit). T cells were then cultured in c-RPMI with MOG35-55 peptide in the presence of irradiated antigen presenting cells with or without additional cytokines to polarize the cells to a Th17 phenotype for 72 hours and then underwent flow-cytometry to analyze proliferation and Th17 polarization.

[5] = test system: macrophages; experiment: Nitric oxide production in macrophages; type: cell-based
[6] = test system: human embryonic stem cell derived oligodendrocyte precursor cells; experiment: Differentiation of human embryonic stem cell derived oligodendrocyte precursor cells (luciferase under MBP promoter); type: cell-based
Text: We also tested the effect of indole lactate on differentiation of human embryonic stem cell derived oligodendrocyte precursor cells. In this system, the cells produce luciferase under control of the promoter for MBP. Thus, OPC differentiation can be measured using the quantity of luciferase produced by cells.

[7] = test system: Cuprizone-induced model of demyelination; experiment: Cuprizone-induced model of demyelination, ILA 20 or 40 mg/kg; type: in vivo, Mice; conditions: 0.2% Cuprizone 4 weeks then regular chow one week
Experimental: We tested the ability of indole lactate to promote remyelination in the Cuprizone-induced model of demyelination. Mice were fed with 0.2% Cuprizone for 4 weeks to induce demyelination and then switched to regular chow for one week. At three weeks of Cuprizone feeding mice were randomized to treatment with ILA 20 mg/kg, ILA 40 mg/kg or vehicle for two weeks.

[8] = test system: mouse model of demyelination (cuprizone); experiment: Cuprizone model of demyelination, oral ILA in drinking water; type: in vivo, mice
Experimental: In subsequent experiments, we fed mice with 0.2% cuprizone for 5 weeks and then randomized them to ILA 2 mM in drinking water or acidified water as a control for 2 weeks. […] These observations provide evidence that oral administration of ILA promotes remyelination in vivo in a mouse model of demyelination.

[9] = test system: Arylhydrocarbon Receptor (AhR); experiment: CYP1B1 (AhR responsive gene) expression in human ES derived OPCs, quantitative PCR; type: cell-based
Text: We noted presence of AhR in Olig2+ and PDGFRα+ cells confirming that AhR is present in oligodendrocyte precursor cells. We also obtained RNA from human ES derived OPCs that had been treated with either vehicle or two different doses of ILA for 5 days.

[10] = test system: OPCs from wild type (WT) mice; experiment: OPC differentiation in OPCs from WT mice; type: cell-based
[11] = test system: OPCs from Ahr KO mice; experiment: OPC differentiation in OPCs from constitutive Ahr-KO mice; type: cell-based; conditions: listed as ILA
Text: We further evaluated the mechanism of ILA using OPCs from mice that lack the Ahr gene—constitutive Ahr-KO mice.

[12] = test system: human ES derived OPCs; experiment: OPC differentiation of human ES derived OPCs with AhR antagonist; type: cell-based; conditions: small molecule AhR antagonist
Text: We also tested the effects of blocking AhR signaling using a small molecules AhR antagonist.

[13] = test system: gut microbiota; experiment: Gut microbiota in EAE mice by 16s rRNA sequencing; type: in vivo
Text: We examined the change in the gut microbiota using 16s rRNA sequencing at baseline, peak of disease and chronic disease in mice receiving ILA or vehicle orally.

[14] = Circulating ILA and IAA levels with oral ILA supplementation; type: in vivo, mice
Text: FIG. 12A, FIG. 12B, FIG. 12C, FIG. 12D, FIG. 12E, FIG. 12F, FIG. 12G, FIG. 12H, and FIG. 12I show: FIG. 12A. Schematic of product of ILA and IAA and the change in levels with ILA supplementation in naïve mice. FIG. 12B. Clinical scores and plasma ILA and IAA levels at end of experiment in mice on vehicle or oral ILA supplementation. FIG. 12C. Change in ILA/IAA ratio. FIG. 12D. Correlation of ILA/IAA ratio and cumulative EAE score. FIG. 12E. Gut microbiota composition in vehicle and ILA groups at various time points (n=10 each group). FIG. 12F. Change in alpha diversity over the course of EAE.

[15] = spinal cord, four weeks post-immunization, oral ILA 2 mM in drinking water
[16] = spinal cord, peak of disease, oral ILA
[17] = ILA 2 mM in drinking water, 2 weeks, vs vehicle

SMILES: N[C@@H](Cc1cc(I)c(Oc2ccc(O)c(I)c2)c(I)c1)C(=O)O [T3, reference compound]
OPC differentiation after PDGF-a withdrawal [1]: further potentiated

CYP1B1 expression ([9]; high-dose ILA): CYP1B1 expression increased
expression of CYP1B1 (AhR responsive gene) ([9]; two doses of ILA, 5 days, vs vehicle, dose-response relationship): increased expression of CYP1B1
ILA/IAA ratio ([14]; EAE mice): increase in ILA/IAA ratio
circulating ILA levels ([14]; naïve mice): increased circulating ILA levels
SMILES: O=C(O)C(O)Cc1c[nH]c2ccccc12 (stereo not drawn) [indole lactate, indole-3-lactic acid]
disease severity, dose dependence (EAE) ([2]; 10 and 20 mg/kg IP twice daily vs vehicle): significant dose-dependent reduction in disease severity
Disease severity (EAE) ([2]; high-dose (20 mg/kg) IP twice daily vs vehicle): reduced significantly
Disease severity (EAE) ([2]; low-dose (10 mg/kg) IP twice daily vs vehicle): reduced significantly
immune cell infiltration on IHC and flow cytometry analysis ([3]; oral indole lactate vs vehicle): reduction in immune cell infiltration
severity of EAE [3]: reduced significantly
severity of EAE ([3]; listed as ILA): reduced severity of EAE
extent of demyelination on IHC [3, 15]: reduced extent of demyelination
immune cell infiltration on IHC [3, 15]: reduced extent of demyelination and immune cell infiltration
iNOS producing inflammatory macrophages (flow cytometry) [3, 16]: shift towards less iNOS producing inflammatory macrophages
infiltration of T cells and macrophages (flow cytometry) [3, 16]: reduced infiltration of T cells and macrophages
T cell activation ([4]; 72 hours): reduces T cell proliferation, activation
Th17 polarization ([4]; MOG35-55 peptide, Th17 polarizing cytokines, 72 hours, dose-dependent): reduced T cell proliferation and Th17 polarization in a dose-dependent manner
T cell proliferation ([4]; MOG35-55 peptide, irradiated antigen presenting cells, 72 hours, dose-dependent): reduces T cell proliferation; also recorded: reduced T cell proliferation and Th17 polarization in a dose-dependent manner
pro-inflammatory cytokine production from T cells ([4]; in culture): reduces T cell proliferation, activation and pro-inflammatory cytokine production; also recorded: reduced pro-inflammatory cytokine production
production of nitric oxide in macrophages [5]: reduced pro-inflammatory cytokine production from T cells in culture and the production of nitric oxide in macrophages
proportion of Olig2 and CC1 double-positive cells ([1]; ILA 150 μM vs vehicle): significantly higher proportion
proportion of Olig2 and CC1 double-positive cells ([1]; ILA 300 μM vs vehicle): significantly higher proportion
expression of MBP (qPCR) ([1]; ILA 300 μM with low dose T3 compared to T3 alone): significantly higher expression
OPC differentiation after PDGF-a withdrawal [1]: further potentiated
OPC differentiation (CC1 expression) [1]: dose-dependent increase in OPC differentiation
OPC differentiation (CC1 expression) ([1]; listed as ILA): increased differentiation of OPCs
oligodendrocyte precursor cell differentiation based on production of luciferase (marker of MBP expression) ([6]; 100 μM): promoted oligodendrocyte precursor cell differentiation
oligodendrocyte precursor cell differentiation based on production of luciferase (marker of MBP expression) ([6]; 300 μM): promoted oligodendrocyte precursor cell differentiation
OPC differentiation measured by Luciferase release ([6]; ILA treatment conditions, dose-dependent): significant increase in OPC differentiation
area of myelination in the corpus callosum (Black Gold staining) ([7]; ILA 20 mg/kg for two weeks): significant increase in area of myelination
area of myelination in the corpus callosum (Black Gold staining) ([7]; ILA 40 mg/kg for two weeks): significant increase in area of myelination
remyelination in the corpus callosum (black gold and fluoromyelin staining) ([8]; ILA 2 mM in drinking water, 2 weeks after 0.2% cuprizone 5 weeks, vs acidified water): significantly increased remyelination
g ratio (scanning EM, corpus callosum) [8, 17]: significantly lower g ratio
proportion of myelinated axons (scanning EM, corpus callosum) [8, 17]: higher proportion of myelinated axons
proportion of remyelinated axons (electron micrographs, corpus callosum) ([8]; oral ILA vs vehicle): higher proportion of remyelinated axons
OPC differentiation [10]: promoted OPC differentiation
OPC differentiation (pro-differentiation effect of ILA) [11]: loss of pro-differentiation effect; also recorded: the effect was lost
effect of AhR antagonist on pro-differentiating effect of ILA ([12]; high doses of ILA): this effect was lost at high doses
pro-differentiating effect of ILA in presence of AhR antagonist ([12]; low doses of ILA, listed as ILA): an AhR inhibitor reverses the effects of ILA on OPC differentiation; also recorded: the AhR antagonist blocked the pro-differentiating effects
acetylene degradation pathway (gut microbiota functional pathway) ([13]; ILA supplementation): reduced acetylene degradation pathway
change in multiple bacteria (abundance) ([13]; oral ILA vs vehicle): differential change in multiple bacteria
overall composition of the gut microbiota ([13]; oral ILA vs vehicle, baseline, peak and chronic disease): change in the overall composition of the gut microbiota

Reference: patent US20260294870A1, “INDOLE LACTATE FOR THE TREATMENT OF MULTIPLE SCLEROSIS” (The Johns Hopkins University, priority 2023, published 2026)
